Experimental data: US12440492B2, “Pharmaceutical compositions comprising AKT protein kinase inhibitors” (Genentech, Inc., priority 2016, dated 2025)
Several values for one entry are separate records, joined by “and”; a condition that tells them apart may be missing. Identical values can stand only once. Counter-ions that a name gives are not always drawn.

How the values were obtained:
Type in all cases: physicochemical
[1] = Bulk density, tapped density and Carr index; conditions: for Bulk density / Tapped density: monohydrochloride
[2] = Solid state by X-ray powder diffraction; conditions: * indicates absence of crystalline API; for Solid state / Polymorphy (X-Ray, XRPD): monohydrochloride
Source text: Bragg's law describes the diffraction of crystalline material with the equation “2d·sin(theta)=n·lambda”, wherein “d” denotes perpendicular distance (in Angstroms) between pairs of adjacent planes in a crystal (“d-spacing”), “theta” denotes the Bragg angle, “lambda” denotes the wavelength and “n” is an integer. When Bragg's law is fulfilled, the reflected beams are in phase and interfere constructively so that Bragg diffraction peaks are observed in the X-ray diffraction pattern. At angles of incidence other than the Bragg angle, reflected beams are out of phase and destructive interference or cancellation occurs. […] The XRPD pattern of an amorphous material is further characterized by one or more amorphous halos.
The term “XRPD” denotes the analytical method of X-Ray Powder Diffraction. The repeatability of the angular values is in the range of 2Theta±0.2°, more particularly in the range of 2Theta±0.1°. The term “approximately” given in combination with an angular value denotes the variance which is in the range of 2Theta±0.2°, particularly in the range of 2Theta±0.1°. The relative XRPD peak intensity is dependent upon many factors such as structure factor, temperature factor, crystallinity, polarization factor, multiplicity, and Lorentz factor. Relative intensities may vary considerably from one measurement to another due to preferred orientation effects. According to USP 941 (US Pharmacopoeia, 37th Edition, General Chapter 941), relative intensities between two samples of the same material may vary considerably due to “preferred orientation” effects. Anisotropic materials adopting preferred orientation will lead to anisotropic distribution of properties such as modulus, strength, ductility, toughness, electrical conductivity, thermal expansion, etc., as described e.g. in Kocks U. F. et al. (Texture and Anisotropy: Preferred Orientations in Polycrystals and Their Effect on Materials Properties, Cambridge University Press, 2000). In XRPD but also Raman spectroscopy, preferred orientations cause a change in the intensity distribution. Preferred orientation effects are particularly pronounced with crystalline APIs of relatively large particle size.

[3] = Particle size distribution (d10, d50, d90) by laser diffraction
Source text: FIG. 6 illustrates particle size distribution of the material of Example 6C (Batch HQ00003) spray dried with two-feed nozzle as obtained by laser diffraction A bimodal particle size distribution is obvious. FIG. 9 illustrates particle size distribution of spray dried material with rotary wheel nozzle, i.e. of the material of batch BS1506SA03 of Example 13 (Table 20) obtained using a Malvern Mastersizer 2000 equipped with Hydro 2000S wet sample dispersion unit (Malvern Instruments Ltd, Malvern/UK). A monomodal particle size distribution is obvious. The terms “d50 value” (sometimes also referred to as “d(0.5)-value”) and “mass-median diameter” (or MMD) can be used interchangeably and denote the average particle size by mass, i.e. the average equivalent diameter of a particle, which is defined as the diameter where 50% (w) of the particles of the ensemble have a larger equivalent spherical diameter, and the other 50% (w) have a smaller equivalent spherical diameter. In analogy, the term “d10-value” denotes the particle diameter wherein 10% (w) of the particles of the ensemble have a smaller equivalent spherical diameter. In analogy, the term “d90-value” denotes the particle diameter wherein 90% (w) of the particles of the ensemble have a smaller equivalent spherical diameter.

[4] = Shear cell testing with Ring Shear Tester RST-XS
Source text: Similar to the classification used by Jenike (Dietmar Schulze, Pulver und Schüttgüter, 2009 Springer Verlag Berlin/DE), one can define flow behaviour based on the flow function constant (ffc) as follows:
The larger the flow function constant ffc, i.e., the smaller the ratio of the unconfined yield strength (σc) to the consolidation stress (σ1), the better a bulk solid's flow.

[5] = spray dried amorphous ipatasertib monohydrochloride powder
[6] = Pre-shear stress 1000 PA, 30 mL shear cell, monohydrochloride
[7] = spray-dried amorphous ipatasertib monohydrochloride, rotary wheel atomizer

Bulk density [1, 5]	Tapped density [1, 5]	Solid state / Polymorphy (X-Ray, XRPD) [2]	Particle size d10 [3, 5] [μm]	Particle size d50 [3, 5] [μm]	Particle size d90 [3, 5] [μm]	Consolidation stress (σ1) [4, 6] [PA]	Flow Function Constant (ffc) [4, 6]	Bulk density [1, 7] [gcm^−3]	Tapped density [1, 7] [gcm^−3]	Polymorphy (X-Ray) [2]	Particle size d10 [3, 7] [μm]	Particle size d50 [3, 7] [μm]	Particle size d90 [3, 7] [μm]	SMILES	other results
0.48 gcm^−3	0.61 gcm^−3	Amorphous*	17	45	88									CC(C)NC[C@@H](C(=O)N1CCN(c2ncnc3c2[C@H](C)C[C@H]3O)CC1)c1ccc(Cl)cc1 [Composition 130710451, ipatasertib monohydrochloride]	
0.47 gcm^−3	0.61 gcm^−3	amorphous*	11.4	31	64									CC(C)NC[C@@H](C(=O)N1CCN(c2ncnc3c2[C@H](C)C[C@H]3O)CC1)c1ccc(Cl)cc1 [Composition 140110401, ipatasertib monohydrochloride]	
0.39 gcm^−3	0.54 gcm^−3	amorph.*	11	39	80									CC(C)NC[C@@H](C(=O)N1CCN(c2ncnc3c2[C@H](C)C[C@H]3O)CC1)c1ccc(Cl)cc1 [Composition 141210425, ipatasertib monohydrochloride]	
0.262 gcm^−3 and 0.26 gcm^−3	0.423 gcm^−3 and 0.42 gcm^−3		0.8	3.0	5.7									CC(C)NC[C@@H](C(=O)N1CCN(c2ncnc3c2[C@H](C)C[C@H]3O)CC1)c1ccc(Cl)cc1 [Example 6C′, ipatasertib monohydrochloride]	Carr Index [1, 5]: 38%; Consolidation stress (σ1) ([4]; Pre-shear stress 1000 PA): 2118 PA; Flow Function Constant (ffc) ([4]; Pre-shear stress 1000 PA): 1.08; tc ([4]; Pre-shear stress 1000 PA): 514 Pa; Consolidation stress (σ1) ([4]; Pre-shear stress 2000 PA): 4844 PA; Flow Function Constant (ffc) ([4]; Pre-shear stress 2000 PA): 1.09; tc ([4]; Pre-shear stress 2000 PA): 1095 Pa; Consolidation stress (σ1) ([4]; Pre-shear stress 4000 PA): 9557 PA; Flow Function Constant (ffc) ([4]; Pre-shear stress 4000 PA): 1.12; tc ([4]; Pre-shear stress 4000 PA): 2041 Pa; ffc ([4]; across all pre-shear stresses): around 1.1; flowability ([4]; shear cell testing): very poor flowability
0.30 gcm^−3	0.45 gcm^−3	Amorphous*	6.6	20	58									CC(C)NC[C@@H](C(=O)N1CCN(c2ncnc3c2[C@H](C)C[C@H]3O)CC1)c1ccc(Cl)cc1 [Composition 130810453, ipatasertib monohydrochloride]	
0.34 gcm^−3	0.50 gcm^−3	amorphous*	9.3	26	58									CC(C)NC[C@@H](C(=O)N1CCN(c2ncnc3c2[C@H](C)C[C@H]3O)CC1)c1ccc(Cl)cc1 [Composition 140110408, ipatasertib monohydrochloride]	
0.37 gcm^−3	0.51 gcm^−3	amorphous*	9.2	27	58									CC(C)NC[C@@H](C(=O)N1CCN(c2ncnc3c2[C@H](C)C[C@H]3O)CC1)c1ccc(Cl)cc1 [Composition 140110411, ipatasertib monohydrochloride]	

Continued, molecule first:

SMILES	Bulk density [1, 5]	Tapped density [1, 5]	Solid state / Polymorphy (X-Ray, XRPD) [2]	Particle size d10 [3, 5] [μm]	Particle size d50 [3, 5] [μm]	Particle size d90 [3, 5] [μm]	Consolidation stress (σ1) [4, 6] [PA]	Flow Function Constant (ffc) [4, 6]	Bulk density [1, 7] [gcm^−3]	Tapped density [1, 7] [gcm^−3]	Polymorphy (X-Ray) [2]	Particle size d10 [3, 7] [μm]	Particle size d50 [3, 7] [μm]	Particle size d90 [3, 7] [μm]	other results
CC(C)NC[C@@H](C(=O)N1CCN(c2ncnc3c2[C@H](C)C[C@H]3O)CC1)c1ccc(Cl)cc1 [Composition 140910420, ipatasertib monohydrochloride]	0.32 gcm^−3	0.44 gcm^−3	amorph.*	9.7	24	47	1733	2.4							
CC(C)NC[C@@H](C(=O)N1CCN(c2ncnc3c2[C@H](C)C[C@H]3O)CC1)c1ccc(Cl)cc1 [Composition 140910418, ipatasertib monohydrochloride]	0.39 gcm^−3	0.55 gcm^−3	amorph.*	10	26	52	1730	3.1							
CC(C)NC[C@@H](C(=O)N1CCN(c2ncnc3c2[C@H](C)C[C@H]3O)CC1)c1ccc(Cl)cc1 [BS1506SA06, ipatasertib monohydrochloride]							1683	3.2	0.41	0.56	amorphous*	12	32	63	
CC(C)NC[C@@H](C(=O)N1CCN(c2ncnc3c2[C@H](C)C[C@H]3O)CC1)c1ccc(Cl)cc1 [BS1506SA01, ipatasertib monohydrochloride]							1725	4.0	0.41	0.57	amorphous*	11	31	64	
CC(C)NC[C@@H](C(=O)N1CCN(c2ncnc3c2[C@H](C)C[C@H]3O)CC1)c1ccc(Cl)cc1 [BS1506SA07, ipatasertib monohydrochloride]							1705	3.1	0.42	0.56	amorphous*	13	32	65	
CC(C)NC[C@@H](C(=O)N1CCN(c2ncnc3c2[C@H](C)C[C@H]3O)CC1)c1ccc(Cl)cc1 [Composition 140910417, ipatasertib monohydrochloride]	0.39 gcm^−3	0.55 gcm^−3	amorph.*	11	27	54	1726	2.9							
CC(C)NC[C@@H](C(=O)N1CCN(c2ncnc3c2[C@H](C)C[C@H]3O)CC1)c1ccc(Cl)cc1 [BS1506SA08, ipatasertib monohydrochloride]							1686	3.4	0.43	0.56	amorphous*	13	34	68	
CC(C)NC[C@@H](C(=O)N1CCN(c2ncnc3c2[C@H](C)C[C@H]3O)CC1)c1ccc(Cl)cc1 [Composition 140910415, ipatasertib monohydrochloride]	0.42 gcm^−3	0.57 gcm^−3	amorph.*	11	29	56	1710	3.3							
CC(C)NC[C@@H](C(=O)N1CCN(c2ncnc3c2[C@H](C)C[C@H]3O)CC1)c1ccc(Cl)cc1 [BS1506SA03, ipatasertib monohydrochloride]							1709	2.9	0.39	0.55	amorphous*	12	31	62	particle size distribution shape ([3]; laser diffraction, monohydrochloride): monomodal
